Measured values from ChEMBL document CHEMBL1201862, “PubChem BioAssay data set” (2004).
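Dose response: 5 concentrations. Exposure: 48 h. Format: 96-well plates. Endpoint: linear interpolation; highest concentration if not reached. At the GI50, growth is halved.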 Active and inactive are the calls of the source. No stated cut-off is given here; in the data, active = GI50 up to about 1.1 µM and inactive = higher.

Legend:
Assay in all cases: NCI-60 cell line screen, 48 h
[1] = test system: ACHN
[2] = test system: NCI-H522
[3] = test system: SNB-78
[4] = test system: HCT-116
[5] = test system: K562
[6] = test system: NCI-H23
[7] = test system: CAKI-1
[8] = test system: DMS-114
[9] = test system: DMS-273
[10] = test system: HCC 2998
[11] = test system: SR
[12] = test system: M19-MEL
[13] = test system: KM-20L2
[14] = test system: DLD-1
[15] = test system: NCI/ADR-RES
[16] = test system: MCF7
[17] = test system: MDA-MB-435
[18] = test system: MDA-MB-231
[19] = test system: BT-549
[20] = test system: DU-145

Structure (SMILES)	GI50 [1]	GI50 [2]	GI50 [3]	GI50 [4]	GI50 [5]	GI50 [6]	GI50 [7]	GI50 [8]	GI50 [9]	GI50 [10]	GI50 [11]	GI50 [12]	GI50 [13]	GI50 [14]	GI50 [15]	GI50 [16]	GI50 [17]	GI50 [18]	GI50 [19]	GI50 [20]
COc1c2c(c(O)c3c4c(c(C)cc13)C1OC3(C(OC)OC5CC(C)(O)C(OC6CC(C)(O)C(O)C(C)O6)C(C)O5)OC1C(OC)(O4)C31CO1)C(=O)C(O)CC2OC1CC(C)(O)C(OC(C)=O)C(C)O1 (stereo unspecified)	< 0.0112 µM (active)	< 0.01 µM (active)	< 0.01 µM (active)	< 0.01 µM (active)	< 0.01 µM (active)	< 0.01 µM (active)	0.052 µM (active)	< 0.01 µM (active)	< 0.01 µM (active)	< 0.01 µM (active)	< 0.01 µM (active)	< 0.01 µM (active)	< 0.01 µM (active)	0.01 µM (active)						
CSC(=N)NNC(=O)CCC(=O)Nc1ccccc1C(F)(F)F	> 100 µM (inactive)	> 100 µM (inactive)	> 61.5 µM (inactive)	> 100 µM (inactive)	> 100 µM (inactive)	> 100 µM (inactive)	> 100 µM (inactive)	> 100 µM (inactive)	> 100 µM (inactive)	> 100 µM (inactive)	> 100 µM (inactive)	> 100 µM (inactive)	> 44.7 µM (inactive)	> 100 µM (inactive)						
CCN(CC)CC(=N)N(CC)c1ccccc1	> 100 µM (inactive)	> 100 µM (inactive)	> 100 µM (inactive)	> 100 µM (inactive)	> 100 µM (inactive)	> 100 µM (inactive)	> 100 µM (inactive)	> 100 µM (inactive)		93.3 µM (inactive)		> 100 µM (inactive)	> 100 µM (inactive)	> 100 µM (inactive)						
OC12c3ccccc3C1CCCCCC21OCCCO1 (stereo unspecified)	> 100 µM (inactive)	> 100 µM (inactive)	> 100 µM (inactive)	> 100 µM (inactive)	> 100 µM (inactive)	> 100 µM (inactive)	> 100 µM (inactive)	> 100 µM (inactive)	> 100 µM (inactive)			> 100 µM (inactive)	> 100 µM (inactive)	> 100 µM (inactive)						
O=C1NC(c2cccc3ccccc23)Nc2ccc(O)cc21 (stereo unspecified)		22.3 µM (inactive)	40.3 µM (inactive)	32.1 µM (inactive)	8.57 µM (inactive)	34 µM (inactive)	30.5 µM (inactive)	7.35 µM (inactive)	10.4 µM (inactive)	27.2 µM (inactive)		28.6 µM (inactive)	40.3 µM (inactive)	33.5 µM (inactive)	16 µM (inactive)	16.1 µM (inactive)				
O=Cc1ccc(CCl)cc1	22.5 µM (inactive)	19.7 µM (inactive)	16.5 µM (inactive)	14.5 µM (inactive)	27.1 µM (inactive)	> 10 µM (inactive)		6.93 µM (inactive)	19.8 µM (inactive)		19.5 µM (inactive)	17.3 µM (inactive)	23.6 µM (inactive)	16.1 µM (inactive)						
O=C(NC1C2CC3CC(C2)CC1C3)c1cc(/C=C/c2ccccc2)nc(S)n1 (stereo unspecified)	> 100 µM (inactive)	> 100 µM (inactive)	> 100 µM (inactive)	> 100 µM (inactive)	> 100 µM (inactive)	> 100 µM (inactive)	> 100 µM (inactive)	> 100 µM (inactive)	> 100 µM (inactive)	> 100 µM (inactive)	> 100 µM (inactive)	> 100 µM (inactive)	> 100 µM (inactive)	> 100 µM (inactive)						
CCCCC(NC(=O)CC)C(=O)O (stereo unspecified)		> 100 µM (inactive)	> 100 µM (inactive)	> 100 µM (inactive)	> 100 µM (inactive)	> 100 µM (inactive)	> 100 µM (inactive)	> 100 µM (inactive)	> 100 µM (inactive)	> 31.6 µM (inactive)		> 100 µM (inactive)	> 100 µM (inactive)	> 100 µM (inactive)	> 100 µM (inactive)	> 100 µM (inactive)				
COc1ccc(OC)c2c3c(ccc12)C(c1ccccc1)OC3=O (stereo unspecified)	55.7 µM (inactive)	36.5 µM (inactive)	12.8 µM (inactive)	72.9 µM (inactive)	47.2 µM (inactive)	17.7 µM (inactive)	55.1 µM (inactive)	51.8 µM (inactive)	31.9 µM (inactive)	> 100 µM (inactive)	45 µM (inactive)	45.7 µM (inactive)	> 100 µM (inactive)	63.5 µM (inactive)						
COC(=O)C1OC(Oc2cc(O)c3c(=O)cc(-c4ccc(O)cc4)oc3c2)C(O)C(O)C1O (stereo unspecified)		> 100 µM (inactive)	> 100 µM (inactive)	> 100 µM (inactive)	> 100 µM (inactive)	> 100 µM (inactive)	> 100 µM (inactive)	> 100 µM (inactive)	> 100 µM (inactive)	> 100 µM (inactive)		> 100 µM (inactive)	> 100 µM (inactive)	> 100 µM (inactive)	> 100 µM (inactive)	> 100 µM (inactive)				
O=C(O)C(C(=O)O)P(=S)(S)c1ccccc1 (stereo unspecified)	> 100 µM (inactive)	> 100 µM (inactive)	> 100 µM (inactive)	> 100 µM (inactive)	> 100 µM (inactive)	> 100 µM (inactive)	> 100 µM (inactive)	> 100 µM (inactive)	> 100 µM (inactive)	> 100 µM (inactive)	> 73.5 µM (inactive)	> 100 µM (inactive)	> 100 µM (inactive)	> 100 µM (inactive)	> 100 µM (inactive)	> 100 µM (inactive)	> 100 µM (inactive)	> 100 µM (inactive)	> 100 µM (inactive)	> 100 µM (inactive)
CCCCC1=C(Br)C(=C(Br)Br)OC1=O		1.86 µM (inactive)	6.01 µM (inactive)	3.02 µM (inactive)	3.32 µM (inactive)	4.37 µM (inactive)	2.15 µM (inactive)	2.07 µM (inactive)	2.74 µM (inactive)	6.31 µM (inactive)		2.74 µM (inactive)	8.65 µM (inactive)	1.9 µM (inactive)	4.14 µM (inactive)	3.54 µM (inactive)				
Cc1c2cc[n+](C)cc2c(C)c2c1[nH]c1ccc(O)cc12 [ELLIPTINIUM ACETATE]		4.31 µM (inactive)	61.9 µM (inactive)	20.2 µM (inactive)	16.9 µM (inactive)	8.91 µM (inactive)	47.4 µM (inactive)	5.97 µM (inactive)	11.7 µM (inactive)	49.4 µM (inactive)		4.7 µM (inactive)	> 100 µM (inactive)	57.7 µM (inactive)	61.7 µM (inactive)	8.75 µM (inactive)	48.9 µM (inactive)	50.9 µM (inactive)	3.71 µM (inactive)	5.46 µM (inactive)
